# Experiments:
# [1] = test system: cortico-striatal synapse LTD (striatal projection neurons); assay: Long-term depression at the cortico-striatal synapse, whole-cell electrophysiology in acute brain slices; type: cell-based, mouse
# Description: To directly test these predictions, whole-cell electrophysiology of striatal projection neurons was performed in acute brain slices to induce long-term depression in the presence of eIF2-alpha pathway-modulating drugs. Acute horizontal brain slices from the progeny of heterozygous ΔE Torsin1a knockin×homozygous Drd1a-tdTomato mice (age P15-21) were prepared largely as described in (Trusel et al., 2015, Cell Rep. 13, 1353-65). LTD was induced as in Trusel et al., 2015, with modifications.
# Heterozygous delGAG Torsin1a knockin mice (courtesy of Dr. W. Dauer, University of Michigan) were crossed with homozygous Drd1a-tdTomato mice (Jackson Labs) and the progeny was used at postnatal day 15-21 for experiments. […]
# Single slices were transferred to a recording chamber and superfused continuously with ACSF containing 50 μM picrotoxin at 32° C. and 3-4 mL/min. […] Evoked excitatory postsynaptic potentials (EPSPs) were recorded in the dorsolateral striatum, while stimulating every 30 seconds with a concentric bipolar electrode (FHC) in cortical layer V (see Trusel et al., Cell Reports, 2015). […] Baseline EPSPs were recorded for at least 10 min or until a stable baseline was reached. Data were acquired by pClamp v10 and analyzed using Clampfit v10.4, Origin v8.0, and GraphPad Prism v6.
# [2] = test system: WT Torsin1a localization in Flp-In T-REx 293 cells expressing EGFP-WT Torsin1a; assay: Torsin1a localization assay in WT Torsin1a-expressing assay cell line; type: cell-based, human; conditions: WT Torsin1a-expressing cell line, dose response
# Description: To develop an assay capable of detecting conditions that correct a dystonia cellular phenotype, two human cell lines were generated that stably expressed EGFP-tagged human wild-type Torsin 1A, or delta-E Torsin1a, from a single cDNA copy integrated at a defined genomic site (FIG. 1, panel 1).
# To limit variation in expression levels associated with random integration or transient expression, single copies of either WT or delta-E human TOR1A cDNAs with N-terminal EGFP fusions were inserted at the FRT site in Flp-In™ T-Rex™ 293 cells (Thermo Fisher Scientific #R780-07) via flippase recombinase-mediated cassette exchange according to the manufacturer's recommended protocols. This system includes an inducible expression feature (TetON) that avoids selective pressure for potential toxic effects of chronic expression of mutant proteins (FIG. 1, panel 1). […]
# This approach provides control over expression levels, avoiding the wide variation typically seen with random genomic integration or transient expression approaches. […] The mutant phenotype was measured as the percentage of cells with one or more EGFP puncta using automated high-content imaging analysis (see infra).
# Development and validation of the high-content image analysis and assay performance under high-throughput screening conditions is presented in FIG. 9. […] Automated exposure times for each plate were determined by setting a target saturation of 25% in channel 1 in wells containing tetracycline-induced delta-E cells. Detected cells were gated according to nuclear area, length-to-width ratio, and perimeter-to-area ratio. […] EGFP fluorescence (Ch2: excitation 488 nm; emission 509 nm) was used for puncta detection. Automated exposure times for each plate were determined by setting a target saturation of 35% in channel 2 in wells containing induced delta-E cells. […]
SMILES,"LTD in WT brain slices ([1]; pre-incubation 5 nM, WT mice)","effect on WT Torsin1a localization (cells with punctate Torsin1a, in words) [2]","long-term depression in brain slices of mice heterozygous for DYT1 knockin mutation (delGAG) ([1]; 20 μM, vs vehicle-treated slices)"
O=C(COc1ccc(Cl)cc1)NC1CCC(NC(=O)COc2ccc(Cl)cc2)CC1 (stereo not drawn) [ISRIB],robustly inhibited LTD,dose-dependent increase,–
O=C(/C=C/c1ccccc1)NC(NC(=S)Nc1ccc(Cl)cc1)C(Cl)(Cl)Cl (stereo not drawn) [Sal-003],–,–,restored long-term depression

# Source: patent publication US11285142B2, “Compositions and methods for identifying and treating dystonia disorders” (DUKE UNIVERSITY, priority 2015, dated 2022)
